According to patent US7977352B2, “Triazolopyridine compounds useful for the treatment of degenerative and inflammatory diseases” (Galapagos NV, priority 2006, dated 2011):

Legend:
[1] = system: MMP1 expression by activated synovial fibroblasts (RASFs); assay: MMP assay: MMP1 expression by RASFs triggered with TNF-α (MMP1 ELISA); type: cell-based; details: TNF-α trigger 10 ng/mL, semi-quantitative score, read-out: REDUCTION MMP1/TNFa
In short: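 Primary RA synovial fibroblasts (passage 10–12, 3000 cells/well) were preincubated 90 min with compound in M199/1% FBS (0.2% DMSO), then triggered with TNF-α at 10 ng/mL final or 12.5% complex trigger for 48 h. MMP1 in supernatant was measured by sandwich chemiluminescent ELISA; untriggered and vehicle-triggered wells served as min/max controls.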

[2] = system: MMP1 expression by activated synovial fibroblasts (RASFs); assay: MMP assay: MMP1 expression by RASFs triggered with 'complex trigger' (supernatant of TNF-α-treated THP-1 cells); type: cell-based; details: 'complex trigger' 12.5%, MMP1 ELISA, semi-quantitative score, read-out: Reduction MMP1/THP1
Protocol: A 384-well format ELISA for measurement of MMP1 is developed. Various primary antibodies are tested, as well as various ELISA protocols. The following protocol is developed and validated to measure MMP1 levels in SF supernatant in 384 well plates: white Lumitrac 600 384 well plates (Greiner) are coated with 2 μg/mL anti-MMP1 antibody MAB1346 (Chemicon). The antibody is diluted in buffer 40 (1.21 g Tris base (Sigma), 0.58 g NaCl (Calbiochem) and 5 mL 10% NaN3 (Sigma) in 1 L milliQ water and adjusted to pH 8.5). After overnight incubation at 4° C., plates are washed with PBS (80 g NaCl, 2 g KCl (Sigma), 11.5 g Na2HPO4.7H2O and 2 g KH2PO4 in 10 L milliQ; pH 7.4) and blocked with 100 μL/well Casein buffer (2% Casein (VWR International) in PBS). Next day, casein buffer is removed from ELISA plates and replaced by 50 μL/well EC buffer (4 g casein, 2.13 g Na2HPO4 (Sigma), 2 g bovine albumin (Sigma), 0.69 g NaH2PO4.H2O (Sigma), 0.5 g CHAPS (Roche), 23.3 g NaCl, 4 mL 0.5 M EDTA pH 8 (Invitrogen), 5 mL 10% NaN3 in 1 L milliQ and adjusted to pH 7.0). 0.25 mM DTT (Sigma) is added to the thawed sample plates. After removal of the EC buffer, 20 μL of sample is transferred to the ELISA plates. After overnight incubation at 4° C. plates are washed twice with PBS and once with PBST (PBS with 0.05% Tween-20 (Sigma)) and incubated with 35 μL/well biotinylated anti-MMP1 antibody solution (R&D). This secondary antibody is diluted in buffer C (0.82 g NaH2PO4.H2O, 4.82 g Na2HPO4, 46.6 g NaCl, 20 g bovine albumin and 4 mL 0.5M EDTA pH 8 in 2 L milliQ and adjusted to pH 7.0) at a concentration of 5 μg/mL. After 2 h of incubation at RT, plates are washed as described above and incubated with 50 μL/well streptavidin-HRP conjugate (Biosource). Streptavidin-HRP conjugate is diluted in buffer C at a concentration of 0.25 μg/mL. After 45 min, plates are washed as described above and incubated for 5 min with 50 μL/well BM Chem ELISA Substrate (Roche). Readout is performed on the Luminoscan Ascent Luminometer (Labsystems) with an integration time of 200 msec or with an Envision reader (Perkin Elmer).
The increase of MMP1 expression by SFs upon treatment with cytokines relevant in the field of RA (TNF-α, IL1β and OSM) or a combination thereof is shown in FIG. 2 as white bars. For this experiment, SFs are seeded in 96 well plates, 3,000 cells/well. 24 h later, the medium is changed to M199 medium supplemented with 1% FBS. One day after the medium change, cytokines or combinations thereof are added to the cultures, each cytokine being added to a final concentration of 25 ng/mL. 72 h after cytokine addition, the supernatant is collected and processed in the MMP1 ELISA as described in the protocol given above. In parallel with this experiment, SFs are triggered, using the same protocol, with the supernatant of THP1 cells (2-fold diluted in M199+1% FBS) treated with the same cytokines or combinations of cytokines for 48 h in M199 medium+1% FBS. The induction of the MMP1 expression by SFs triggered with the supernatants of TNF-α-treated THP1 cells is stronger (>4.5 fold induction) as compared to the SFs triggered with recombinant TNF-α alone (3-fold induction) and almost equals the 5-fold induction obtained by a mixture of 3 purified cytokines (TNF-α, IL1βb, OSM). […] As the role of TNF-α in the RA pathogenesis is validated (TNF-α-blockers as Infliximab and Ethanercept show some efficacy in the treatment of RA patients) and the THP-1 cells are representative for monocytes/macrophages present in the joint of RA patients, the TNF-α-based trigger mixture prepared by contacting THP-1 cells with TNF-α will contain factors present in the joints of RA patients and subsequently is relevant to RA. This TNF-α-based complex trigger, further referred to as the ‘complex trigger’, will further be used as basis for the ‘MMP assay’. For preparing a stock of this ‘complex trigger’, THP-1 cells are used between passage 8 and 16. […]

Work on `O=C(NCc1cccnc1)c1ccc(Nc2ccc(-c3cn[nH]c3)n3ncnc23)cc1` [Example 3, 4-[5-(1H-Pyrazol-4-yl)-[1,2,4]triazolo[1,5-a]pyridin-8-ylamino]-N-pyridin-3-ylmethyl-benzamide] yielded an IC50 ([1]; 48 hrs) of 0.501 to 1 µM and an IC50 ([2]; 48 hrs) of 1 to 5 µM.

In the case of `Cc1[nH]ncc1-c1ccc(Nc2ccc(N3CCOCC3)cc2)c2ncnn12` [Example 39, 5-(5-methyl-1H-pyrazol-4-yl)-N-(4-morpholin-4-ylphenyl)[1,2,4]triazolo[1,5-a]pyridin-8-amine], the IC50 ([1]; 48 hrs) is reported as 5 to 10 µM and the IC50 ([2]; Homo sapiens, THP-1, 48 h) is reported as over 10 µM.

Compound `CN1CCN(c2ccc(Nc3ccc(-c4ccc(C(N)=O)c(F)c4)n4ncnc34)cc2)CC1` [Example 42, 2-fluoro-4-(8-{[4-(4-methylpiperazin-1-yl)phenyl]amino}[1,2,4]triazolo[1,5-a]pyridin-5-yl)benzamide] has an IC50 ([1]; Fibroblast, 48 h) of 0.501 to 1 µM and an IC50 ([2]; Homo sapiens, THP-1, 48 h) of over 10 µM.

For `NC(=O)c1ccc(-c2ccc(Nc3ccc(N4CCOCC4)cc3)c3ncnn23)cc1` [Example 1, 4-[8-(4-Morpholin-4-yl-phenylamino)-[1,2,4]triazolo[1,5-a]pyridin-5-yl]-benzamide], the IC50 ([1]; Fibroblast, 48 h) was 0.501 to 1 µM and the IC50 ([2]; Homo sapiens, THP-1, 48 h) was over 10 µM.

Work on `c1nc2c(Nc3ccc(N4CCOCC4)cc3)ccc(-c3cn[nH]c3)n2n1` [Example 7, (4-Morpholin-4-yl-phenyl)-[5-(1H-pyrazol-4-yl)-[1,2,4]triazolo[1,5-a]pyridin-8-yl]-amine] yielded an IC50 ([1]; Fibroblast, 48 h) of 0.501 to 1 µM and an IC50 ([2]; Homo sapiens, THP-1, 48 h) of 5 to 10 µM.

Compound `O=C(NCc1cccnc1)c1ccc(Nc2ccc(-c3cn[nH]c3)n3ncnc23)cc1` [Example 37, 4-{[5-(1H-pyrazol-4-yl)[1,2,4]triazolo[1,5-a]pyridin-8-yl]amino}-N-(pyridin-3-ylmethyl)benzamide] has an IC50 ([1]; Fibroblast, 48 h) of under 0.5 µM and an IC50 ([2]; Homo sapiens, THP-1, 48 h) of 1 to 5 µM.

`CN1CCN(c2ccc(Nc3ccc(-c4cc[nH]c(=O)c4)n4ncnc34)cc2)CC1` [Example 4, 4-{8-[4-(4-Methyl-piperazin-1-yl)-phenylamino]-[1,2,4]triazolo[1,5-a]pyridin-5-yl}-1H-pyridin-2-one] showed an IC50 ([1]; 48 hrs) of 0.501 to 1 µM and an IC50 ([2]; 48 hrs) of 1 to 5 µM.

`O=C(NCc1cccnc1)c1ccc(Nc2ccc(-c3cc[nH]c(=O)c3)n3ncnc23)cc1` [Example 5, 4-[5-(2-oxo-1,2-dihydro-pyridin-4-yl)-[1,2,4]triazolo[1,5-a]pyridin-8-ylamino]-N-pyridin-3-ylmethyl-benzamide] showed an IC50 ([1]; 48 hrs) of 0.501 to 1 µM and an IC50 ([2]; 48 hrs) of over 10 µM.

`CN1CCN(c2ccc(Nc3ccc(-c4cn[nH]c4)n4ncnc34)cc2)CC1` [Example 36, N-[4-(4-methylpiperazin-1-yl)phenyl]-5-(1H-pyrazol-4-yl)[1,2,4]triazolo[1,5-a]pyridin-8-amine] gave an IC50 ([1]; 48 hrs) of 1 to 5 µM and an IC50 ([2]; 48 hrs) of over 10 µM.

With `O=C(NCc1cccnc1)c1ccc(Nc2ccc(-c3cc[nH]c(=O)c3)n3ncnc23)cc1` [Example 41, 4-{[5-(2-oxo-1,2-dihydropyridin-4-yl)[1,2,4]triazolo[1,5-a]pyridin-8-yl]amino}-N-(pyridin-3-ylmethyl)benzamide] the IC50 ([1]; Fibroblast, 48 h) was 1 to 5 µM and the IC50 ([2]; Homo sapiens, THP-1, 48 h) was over 10 µM.

With `CN1CCN(c2ccc(Nc3ccc(-c4cc[nH]c(=O)c4)n4ncnc34)cc2)CC1` [Example 40, 4-(8-{[4-(4-methylpiperazin-1-yl)phenyl]amino}[1,2,4]triazolo[1,5-a]pyridin-5-yl)pyridin-2(1H)-one] the IC50 ([1]; Fibroblast, 48 h) was 1 to 5 µM and the IC50 ([2]; Homo sapiens, THP-1, 48 h) was 1 to 5 µM.

`Cc1[nH]ncc1-c1ccc(Nc2ccc(N3CCOCC3)cc2)c2ncnn12` [Example 8, [5-(5-Methyl-1H-pyrazol-4-yl)-[1,2,4]triazolo[1,5-a]pyridin-8-yl]-(4-morpholin-4-yl-phenyl)-amine] gave an IC50 ([1]; 48 hrs) of 1 to 5 µM and an IC50 ([2]; 48 hrs) of 5 to 10 µM.

With `CN1CCN(c2ccc(Nc3ccc(-c4cn[nH]c4)n4ncnc34)cc2)CC1` [Example 2, [4-(4-Methyl-piperazin-1-yl)-phenyl]-[5-(1H-pyrazol-4-yl)-[1,2,4]triazolo[1,5-a]pyridin-8-yl]-amine] the IC50 ([1]; Fibroblast, 48 h) was 0.501 to 1 µM and the IC50 ([2]; Homo sapiens, THP-1, 48 h) was 5 to 10 µM.
